According to the NIST ThermoML archive (doi:10.1021/je2013704):

Test: mn = molality of the nth substance listed, in mol/kg
Conditions: Liquid, Vibrating tube method

[Ca+2].[Cl-].[Cl-] [calcium chloride] + O
mass density [kg/m3]
Conditions	283.15 K	298.12 K	323.07 K	348.04 K	372.99 K	397.97 K	422.94 K	447.94 K	472.96 K
1050 kPa, m1 = 1	1087.02	1082.37	1072.02	1058.99	1043.73	1026.22	1006.8	985.31	–
1050 kPa, m1 = 3	–	1225.07	1212.47	1198.77	1184.12	1167.99	1150.79	1132.22	–
1050 kPa, m1 = 6	–	1388	1372.06	1356.18	1340.35	1324.03	1307.39	1290.23	–
10020 kPa, m1 = 1	1090.65	1085.93	1075.48	1062.51	1047.42	1030.11	1011.09	989.96	966.77
10020 kPa, m1 = 3	–	1228.17	1215.47	1201.83	1187.2	1171.26	1154.33	1135.97	1116.32
10020 kPa, m1 = 6	–	1390.67	1374.67	1358.9	1343.09	1326.81	1310.4	1293.23	1275.65
19970 kPa, m1 = 1	1094.63	1089.7	1079.27	1066.31	1051.39	1034.38	1015.62	995.04	972.43
19970 kPa, m1 = 3	–	1231.3	1218.73	1205.15	1190.58	1174.82	1158.03	1139.99	1120.67
19970 kPa, m1 = 6	–	1393.43	1377.58	1361.82	1346.07	1329.91	1313.54	1296.61	1279.19
29900 kPa, m1 = 1	1098.56	1093.48	1082.99	1070.05	1055.27	1038.38	1020	999.9	977.79
29900 kPa, m1 = 3	–	1234.6	1221.98	1208.41	1193.94	1178.23	1161.68	1143.88	1124.82
29900 kPa, m1 = 6	–	1396.28	1380.48	1364.67	1349.03	1332.86	1316.63	1299.83	1282.53
39830 kPa, m1 = 1	1102.39	1097.27	1086.62	1073.75	1059.05	1042.42	1024.3	1004.57	983.04
39830 kPa, m1 = 3	–	1237.81	1225.08	1211.58	1197.14	1181.65	1165.21	1147.62	1129.01
39830 kPa, m1 = 6	–	1399.14	1383.27	1367.55	1351.92	1335.87	1319.7	1303.02	1285.96
49760 kPa, m1 = 1	1106.11	1100.95	1090.1	1077.29	1062.77	1046.36	1028.53	1009.07	988.08
49760 kPa, m1 = 3	–	1240.96	1228.11	1214.64	1200.38	1184.96	1168.72	1151.3	1132.99
49760 kPa, m1 = 6	–	1401.93	1385.94	1370.29	1354.76	1338.78	1322.71	1306.09	1289.19
59680 kPa, m1 = 1	1109.84	1104.52	1093.62	1080.87	1066.34	1050.19	1032.62	1013.53	992.91
59680 kPa, m1 = 3	–	1244	1231.21	1217.8	1203.46	1188.2	1172.12	1154.99	1136.86
59680 kPa, m1 = 6	–	1404.61	1388.68	1373.09	1357.57	1341.67	1325.64	1309.22	1292.45
68120 kPa, m1 = 1	1113.04	1107.46	1096.56	1083.78	1069.39	1053.29	1036	1017.15	996.86
68120 kPa, m1 = 3	–	1246.57	1233.72	1220.39	1206.1	1190.88	1174.94	1157.94	1140.04
68120 kPa, m1 = 6	–	1406.89	1390.9	1375.4	1359.88	1344	1328.12	1311.73	1295.04

[Cl-].[Na+] [sodium chloride] + O
mass density [kg/m3]
Conditions	298.12 K	323.07 K	348.04 K	372.99 K	397.97 K	422.94 K	447.94 K	472.96 K
900 kPa, m1 = 1.06	1038.78	1028.45	1014.93	998.89	980.42	959.71	936.49	–
900 kPa, m1 = 3.16	1111.08	1098.8	1084.57	1068.6	1051.16	1031.93	1010.87	–
900 kPa, m1 = 6	1194.53	1180.58	1165.53	1149.58	1132.48	1114.2	1094.62	–
9900 kPa, m1 = 1.06	1042.49	1032.1	1018.61	1002.77	984.6	964.31	941.64	916.86
9900 kPa, m1 = 3.16	1114.33	1102.1	1087.94	1072.14	1054.84	1036.08	1015.28	993.19
9900 kPa, m1 = 6	1197.36	1183.46	1168.53	1152.7	1135.74	1117.84	1098.38	1078.2
19900 kPa, m1 = 1.06	1046.61	1036.09	1022.67	1007	989.13	969.29	947.14	923.12
19900 kPa, m1 = 3.16	1117.89	1105.63	1091.54	1075.95	1058.92	–	–	998.47
19900 kPa, m1 = 6	1200.44	1186.57	1171.76	1156.09	1139.35	1121.56	1102.62	1082.67
29900 kPa, m1 = 1.06	1050.58	–	1026.61	1011.16	993.51	974.04	952.41	929
29900 kPa, m1 = 3.16	1121.4	1109.07	1095.09	1079.61	1062.79	1044.51	1024.61	1003.47
29900 kPa, m1 = 6	1203.47	1189.69	1174.98	1159.48	1142.8	1125.33	1106.53	1087.01
39900 kPa, m1 = 1.06	1054.45	1043.77	1030.49	1015.15	997.76	978.6	957.55	934.76
39900 kPa, m1 = 3.16	1124.91	1112.54	1098.65	1083.24	1066.63	1048.68	1029.15	1008.45
39900 kPa, m1 = 6	1206.51	1192.73	1178.07	1162.74	1146.27	1128.98	1110.46	1091.28
49900 kPa, m1 = 1.06	1058.27	1047.49	1034.25	1019.09	1002.02	983.2	962.42	940.22
49900 kPa, m1 = 3.16	1128.21	1115.9	1101.95	1086.77	1070.44	1052.68	–	1013.17
49900 kPa, m1 = 6	1209.49	1195.77	1181.15	1165.95	1149.66	1132.56	1114.27	1095.39
59900 kPa, m1 = 1.06	1061.93	1051.1	1037.94	1022.88	1006.01	987.46	967.35	945.52
59900 kPa, m1 = 3.16	1131.46	1119.2	1105.34	1090.25	1074.07	1056.58	1037.71	1017.78
59900 kPa, m1 = 6	1212.31	1198.7	1184.21	1169	1152.86	1136.03	1118.04	1099.39
68400 kPa, m1 = 1.06	1065.11	1054.12	1041.08	1026.09	1009.32	991.15	971.22	949.91
68400 kPa, m1 = 3.16	1134.29	1121.87	1108.22	1093.16	1077.08	1059.82	1041.14	1021.53
68400 kPa, m1 = 6	1214.78	1201.09	1186.78	1171.6	1155.61	1138.92	1121.1	1102.68
